Measured values taken from PubChem BioAssay (NCI).
Several values for one entry are separate records, joined by “and”; a condition that tells them apart may be missing. Equal entries are not always repeated.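 1) Cells in 96-well plates. 2) Compound, 48 h, 5 concentrations. 3) Linear interpolation between surrounding doses. 4) Unreached endpoint = highest concentration. GI50 is the concentration that inhibits growth by half. The concentration for full growth arrest is given as TGI.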

Key:
Experiment in all cases: NCI tumour cell line growth inhibition, 48 h
SK-MEL-28 melanoma = system: SK-MEL-28 melanoma
HCT-15 colon = system: HCT-15 colon
HL-60(TB) leukemia = system: HL-60(TB) leukemia
SK-MEL-5 melanoma = system: SK-MEL-5 melanoma
NCI-H226 lung = system: NCI-H226 lung
NCI-H23 lung = system: NCI-H23 lung
SF-295 CNS = system: SF-295 CNS
MOLT-4 leukemia = system: MOLT-4 leukemia
HT29 colon = system: HT29 colon
T-47D breast = system: T-47D breast

Row | Compound | TGI (SK-MEL-28 melanoma) | TGI (HCT-15 colon) | TGI (HL-60(TB) leukemia) | TGI (SK-MEL-5 melanoma) | TGI (NCI-H226 lung) | TGI (NCI-H23 lung) | TGI (SF-295 CNS) | TGI (MOLT-4 leukemia) | TGI (HT29 colon) | TGI (T-47D breast) | GI50 (SK-MEL-28 melanoma) | GI50 (T-47D breast) | GI50 (MOLT-4 leukemia) | GI50 (HCT-15 colon) | GI50 (HL-60(TB) leukemia) | GI50 (NCI-H226 lung) | GI50 (NCI-H23 lung) | GI50 (SF-295 CNS) | GI50 (HT29 colon)
1 | Cc1c2c(cc3c1[nH]c1ccccc13)C(c1ccc(F)cc1)=NCC2 | 4.74 µM | 12.4 µM | 1.57 µM | 4.83 µM | 4.64 µM | 7.56 µM | 2.45 µM | 5.34 µM | 4.2 µM |  |  |  |  |  |  |  |  |  | 
2 | O=C1c2ccccc2-c2ccc(O)cc21 | 45.8 µM | 49.6 µM | 75.4 µM | 45.4 µM | > 100 µM | 38.5 µM | 96.2 µM | 44.4 µM | > 100 µM | 44.8 µM |  |  |  |  |  |  |  |  | 
3 | C[N+]1(C)C2CCC1CC(OC(=O)C(CO)c1ccccc1)C2 (stereo not given) | > 100 µM | > 100 µM |  | > 100 µM | > 100 µM | > 100 µM | > 100 µM | > 100 µM | > 100 µM | > 100 µM |  |  |  |  |  |  |  |  | 
4 | CCC(C)C(NC(=O)C(CCCCN)NC(=O)C(NC(=O)C(CCC(N)=O)NC(=O)C(CCCNC(=N)N)NC(C)=O)C(C)CC)C(=O)NC(Cc1c[nH]c2ccccc12)C(=O)NC(Cc1ccccc1)C(=O)NC(CCC(N)=O)C(=O)NC(CC(N)=O)C(=O)NC(CCCNC(=N)N)C(=O)NC(CCCNC(=N)N)C(=O)NC(CCSC)C(=O)NC(CCCCN)C(=O)NC(Cc1c[nH]c2ccccc12)C(=O)NC(CCCCN)C(=O)NC(CCCCN)C(N)=O (stereo not given) | > 50 µM | > 50 µM | > 50 µM | > 50 µM |  | > 50 µM | > 50 µM | > 50 µM | > 50 µM | > 50 µM |  |  |  |  |  |  |  |  | 
5 | Cc1c(N)nc([C@H](CC(N)=O)NC[C@H](N)C(N)=O)nc1C(=O)N[C@H](C(=O)N[C@H](C)[C@@H](O)[C@H](C)C(=O)N[C@H](C(=O)NCCc1nc(-c2nc(C(=O)NCCC[S+](C)C)cs2)cs1)[C@@H](C)O)C(OC1OC(CO)C(O)C(O)C1OC1OC(CO)C(O)C(OC(N)=O)C1O)c1cnc[nH]1 (stereo not given in full) | 25 µM and > 29 µM and > 100 µM | 29 µM [middle of 4 runs] |  | 16.9 µM [middle of 4 runs] |  |  |  | 13.1 µM and 2.22 µM and 4.41 µM | 25 µM and 29 µM and > 100 µM | 24.8 µM and 14.8 µM and 45.9 µM | > 29 µM and 28.1 µM | 5.28 µM and 1.03 µM and 5.77 µM | 0.204 µM and 0.613 µM |  |  |  |  |  | 
6 | N#CCc1[nH]nc2nc(SCc3ccccc3)nc(N3CCCCC3)c12 | 45.8 µM | > 100 µM | 43.6 µM | 32.8 µM |  | 33.1 µM | 35.3 µM | 37.9 µM | 41.4 µM | 39.1 µM |  |  |  |  |  |  |  |  | 
7 | O=C1CS(=O)(=O)C(c2cccc(Oc3ccccc3)c2)N1c1cccc(Cl)c1Cl (stereo not given) | > 100 µM |  | 82.9 µM | 42.6 µM | > 100 µM |  | > 100 µM | 58.9 µM | 71.2 µM | > 100 µM |  |  |  |  |  |  |  |  | 
8 | S=C(NCCCCCCNC(=S)Nc1c2ccccc2nc2ccccc12)Nc1c2ccccc2nc2ccccc12 | > 100 µM | > 100 µM | > 100 µM | > 100 µM | > 30.1 µM | > 100 µM | > 100 µM | > 94.3 µM | > 100 µM |  |  |  |  |  |  |  |  |  | 
9 | CCn1cc(C(=O)O)c(=O)c2cc(F)c(N3CCN(Cn4c(O)c(N=NC(=O)c5ccncc5)c5cc(Cl)ccc54)CC3)cc21 | > 100 µM | > 100 µM | 37 µM | > 100 µM | > 100 µM | > 100 µM | > 100 µM | 36 µM | > 100 µM | > 100 µM |  |  |  |  |  |  |  |  | 
10 | CN1CCN(CCCOc2ccc3ncnc(Nc4ccc(Oc5cccc(C(F)(F)F)c5)c(Cl)c4)c3c2)CC1 | 3.01 µM | 2.88 µM | 4.52 µM |  | 52 µM | 4.04 µM | 3.13 µM | 4.8 µM | 3.63 µM | 4.02 µM | 1.63 µM | 1.39 µM | 1.83 µM | 1.33 µM | 1.89 µM | 21 µM | 1.81 µM | 1.66 µM | 1.13 µM
11 | O=c1c2c([nH]c3nccn13)CCCC2 | > 10 µM | > 10 µM | > 10 µM | > 10 µM | > 10 µM | > 10 µM | > 10 µM | > 10 µM | > 10 µM | > 10 µM |  |  |  |  |  |  |  |  | 
12 | COC1CCC(OS(C)(=O)=O)CO1 (stereo not given) | > 100 µM |  | > 100 µM |  |  | > 100 µM | > 100 µM | > 100 µM | > 100 µM |  |  |  |  |  |  |  |  |  | 
13 | OC(c1ccc(-c2ccccc2)cc1)(c1ccc(-c2ccccc2)cc1)c1ccc(-c2ccccc2)cc1 | > 100 µM | > 100 µM |  | > 100 µM |  | > 100 µM | > 100 µM | > 100 µM | > 100 µM | > 100 µM |  |  |  |  |  |  |  |  | 
14 | C=C1C(C2(C)C=CC(=O)OC3(C)COC(=O)CC32)C(OC=O)C(OC(=O)C(O)C(C)CC)C2(C)C(c3ccoc3)CC(OC(C)=O)C12O (stereo not given) | > 100 µM | > 100 µM | 9.41 µM | > 100 µM | > 100 µM | > 100 µM | > 100 µM | > 100 µM | > 100 µM | > 100 µM |  |  |  |  |  |  |  |  | 
15 | C=CCOCCCC(=O)C(=[N+]=[N-])C(=O)OC | > 100 µM | > 100 µM | > 100 µM | > 100 µM | > 100 µM | > 100 µM | > 100 µM | > 100 µM | > 100 µM |  |  |  |  |  |  |  |  |  | 
16 | O=C1c2scnc2-c2nccc3c2c1nc1ccccc13 | 2.56 µM | 1.28 µM |  |  |  | 1.2 µM | 3.6 µM | > 100 µM | > 19.9 µM | 1.7 µM |  |  |  |  |  |  |  |  | 
